In patent publication EP0422215B1, “ANTIBACTERIAL AND AN[…]” (THE ROCKEFELLER UNIVERSITY, priority 1989, dated 1990):

Assays:
Format in all cases: cell-based
Sheep Red Cells = assay: lysis of sheep red blood cells (lysis assay or inhibition zone plate assay with SRC); conditions: for LETHAL CONCENTRATION SRC: SRC = Sheep Red Cells, ? indicates turbid zone (melittin gives clear zone); for concentration lytic to sheep red blood cells: stated in running text
Description: These values were obtained by either the lysis assay normally used for melittin or by an adaptation of the antibacterial inhibition zone assay of the above-cited Hultmark et al. articles to plates with sheep red cells (SRC). With respect to the latter, sterile agarose plates contained 6 ml of medium with 1% agarose, 0.9% NaCl and 10% SRC suspended in Alsevers solution. A dilution series of peptide was applied in 3mm wells each loaded with 3 µl of the respective samples. The plates were incubated at 30°C for 24 h, the zones were recorded and LC values calculated as described in the Hultmark et al. articles. Clear zones were recorded after a few hours of incubation and the use of such data gave an LC value of the same order as readings after 24 h. This plate assay is faster and more convenient than the lysis assay normally used for melittin.

B. subtilis Bsll = conditions: overnight incubation at 30°C; for LETHAL CONCENTRATION Bsll + ME: B. subtilis, plates prepared with medium E; for LETHAL CONCENTRATION Bsll: Bsll = B. subtilis, thin agarose plates
Description: (§1) The products of the invention were tested for activity against a variety of test organisms selected to represent a number of different types of pathogens some of them known to be particularly virulent by the inhibition zone assay of Hoffmann et al. (1981) Insect Biochem. 11 537-548. Thin agar or agarose plates (8.5 cm diameter) were prepared with 6 ml of rich medium containing 100 µg/ml of streptomycin and 2 x 10^5 viable cells of a test organism resistant to streptomycin. Wells of […] were punched in the plates and 3 µl of serially diluted samples were placed in the wells. The diameters of the zones of inhibition around the wells were measured after overnight incubation at 30° or 37°C. For each peptide the squares of the zone diameters were plotted against the logarithm of the concentration, and from the slopes and intercepts the lethal concentrations were calculated as described by Hultmark (1983) EMBO J. 2, 571-76 or Hultmark et al. (1982) Eur. J. Biochem. 127 207-217.
(§2) Novel peptides CA(1-8)M(1-18), CA(1-9)M(1-17), CB(1-13)M(1-13), CA(1-17)M(1-9), CA(1-18)M(1-8), M(1-13)CA(1-22) and M(1-13)CA(1-13) were prepared as described above (see Examples 1-6). These novel peptides and CA, CB, and M were tested for activity against a variety of organisms selected to represent a number of different types of pathogens, some of them known to be particularly virulent, by the inhibition zone assay of Hoffmann et al. (1981), Insect Biochem. 11 537-48. As in Examples 1-6, thin agarose plates were prepared with the respective organisms. The diameters of the zones of inhibition were measured after overnight incubation at 30°C. The lethal concentrations were determined as described above (see Examples 1-6; Hultmark et al. articles cited thereat).

P. aeruginosa OT97 = conditions: thin agarose plates, overnight incubation at 30°C
Description: as §1, §2

S. aureus Cowan I = conditions: thin agarose plates, 30°C, * indicates flat concentration dependence
Description: as §1, §2

E. coli D21 = conditions: thin agarose plates, overnight incubation at 30°C
Description: as §1, §2

S. pyogenes = conditions: thin agarose plates, overnight incubation at 30°C
Description: as §1, §2

| SMILES | LETHAL CONCENTRATION SRC (Sheep Red Cells) | LETHAL CONCENTRATION Bsll + ME (B. subtilis Bsll) [µM] | LETHAL CONCENTRATION Bsll (B. subtilis Bsll) [µM] | LETHAL CONCENTRATION OT97 (P. aeruginosa OT97) [µM] | LETHAL CONCENTRATION Staph (S. aureus Cowan I) | LETHAL CONCENTRATION D21 (E. coli D21) [µM] | LETHAL CONCENTRATION Strep (S. pyogenes) [µM] | concentration lytic to sheep red blood cells (Sheep Red Cells) [µM] | concentration lytic to sheep red blood cells (Sheep Red Cells; listed as CA(1-13) M(1-13)) | fold improvement over natural melittin in lysis of red cells (Sheep Red Cells; compared with melittin) |
| --- | --- | --- | --- | --- | --- | --- | --- | --- | --- | --- |
| CC[C@H](C)[C@H](NC(=O)CNC(=O)[C@@H](NC(=O)[C@H](CCCCN)NC(=O)[C@H](CCCCN)NC(=O)[C@H](Cc1ccccc1)NC(=O)[C@H](CC(C)C)NC(=O)[C@H](CCCCN)NC(=O)[C@H](Cc1c[nH]c2ccccc12)NC(=O)[C@@H](N)CCCCN)[C@@H](C)CC)C(=O)NCC(=O)N[C@@H](C)C(=O)N[C@H](C(=O)N[C@@H](CC(C)C)C(=O)N[C@@H](CCCCN)C(=O)N[C@H](C(=O)N[C@@H](CC(C)C)C(=O)N[C@H](C(=O)N[C@H](C(=O)NCC(=O)N[C@@H](CC(C)C)C(=O)N1CCC[C@H]1C(=O)N[C@@H](C)C(=O)N[C@@H](CC(C)C)C(=O)N[C@H](C(=O)N[C@@H](CO)C(N)=O)[C@@H](C)CC)[C@@H](C)O)[C@@H](C)O)C(C)C)C(C)C [CA(1-8)M(1-18)] | >600 µM | 0.5 | 0.4 | 0.7 | 1 µM | 0.3 | 2 |  |  |  |
| CC[C@H](C)[C@H](NC(=O)[C@H](CC(C)C)NC(=O)[C@H](C)NC(=O)[C@@H]1CCCN1C(=O)[C@H](CC(C)C)NC(=O)CNC(=O)[C@@H](NC(=O)[C@@H](NC(=O)[C@H](CC(C)C)NC(=O)[C@@H](NC(=O)[C@H](CCCCN)NC(=O)[C@H](CC(C)C)NC(=O)[C@@H](NC(=O)[C@H](C)NC(=O)CNC(=O)[C@@H](NC(=O)CNC(=O)[C@H](CCC(=O)O)NC(=O)[C@@H](NC(=O)[C@H](CCCCN)NC(=O)[C@H](CCCCN)NC(=O)[C@H](Cc1ccccc1)NC(=O)[C@H](CC(C)C)NC(=O)[C@H](CCCCN)NC(=O)[C@H](Cc1c[nH]c2ccccc12)NC(=O)[C@@H](N)CCCCN)[C@@H](C)CC)[C@@H](C)CC)C(C)C)C(C)C)[C@@H](C)O)[C@@H](C)O)C(N)=O [CA(1-9)M(1-17)] | >600 µM | 0.9 | 0.7 | 1 | 6 µM | 0.3 | 0.3 |  |  |  |
| CC[C@H](C)[C@H](NC(=O)CNC(=O)[C@H](CCC(N)=O)NC(=O)CNC(=O)[C@@H](NC(=O)[C@H](CCCCN)NC(=O)[C@H](CCC(=O)O)NC(=O)[C@@H](NC(=O)[C@H](CCCCN)NC(=O)[C@H](CCCCN)NC(=O)[C@H](Cc1ccccc1)NC(=O)[C@H](CC(C)C)NC(=O)[C@H](CCCCN)NC(=O)[C@H](Cc1c[nH]c2ccccc12)NC(=O)[C@@H](N)CCCCN)[C@@H](C)CC)C(C)C)C(=O)NCC(=O)N[C@@H](C)C(=O)N[C@H](C(=O)N[C@@H](CC(C)C)C(=O)N[C@@H](CCCCN)C(=O)N[C@H](C(=O)N[C@@H](CC(C)C)C(=O)N[C@H](C(=O)N[C@H](C(=O)NCC(=O)N[C@@H](CC(C)C)C(N)=O)[C@@H](C)O)[C@@H](C)O)C(C)C)C(C)C [CA(1-13)M(1-13)] |  |  |  |  |  |  |  | > 100 | greater than 200 µM |  |
| CC[C@H](C)[C@H](NC(=O)CNC(=O)[C@@H]1CCCN1C(=O)CNC(=O)[C@H](C)NC(=O)[C@H](CCCCN)NC(=O)[C@@H](NC(=O)[C@@H](NC(=O)CNC(=O)[C@H](CC(=O)O)NC(=O)[C@H](CCCNC(=N)N)NC(=O)[C@@H](NC(=O)[C@H](CC(N)=O)NC(=O)[C@H](CCC(N)=O)NC(=O)CNC(=O)[C@@H](NC(=O)[C@H](CCCCN)NC(=O)[C@H](CCC(=O)O)NC(=O)[C@@H](NC(=O)[C@H](CCCCN)NC(=O)[C@H](CCCCN)NC(=O)[C@H](Cc1ccccc1)NC(=O)[C@H](CC(C)C)NC(=O)[C@H](CCCCN)NC(=O)[C@H](Cc1c[nH]c2ccccc12)NC(=O)[C@@H](N)CCCCN)[C@@H](C)CC)C(C)C)[C@@H](C)CC)[C@@H](C)CC)[C@@H](C)CC)C(=O)NCC(=O)N[C@@H](C)C(=O)N[C@H](C(=O)N[C@@H](CC(C)C)C(=O)N[C@@H](CCCCN)C(=O)N[C@H](C(=O)N[C@@H](CC(C)C)C(=O)N[C@H](C(=O)N[C@H](C(=O)NCC(=O)N[C@@H](CC(C)C)C(N)=O)[C@@H](C)O)[C@@H](C)O)C(C)C)C(C)C [CA(1-24)M(1-13)] |  |  |  |  |  |  |  | > 100 |  |  |
| CC[C@H](C)[C@H](NC(=O)CNC(=O)[C@H](CCCNC(=N)N)NC(=O)CNC(=O)[C@H](CCSC)NC(=O)[C@H](CCCCN)NC(=O)[C@H](CCC(=O)O)NC(=O)[C@@H](NC(=O)[C@H](CCCCN)NC(=O)[C@H](CCCCN)NC(=O)[C@H](Cc1ccccc1)NC(=O)[C@@H](NC(=O)[C@H](CCCCN)NC(=O)[C@H](Cc1c[nH]c2ccccc12)NC(=O)[C@@H](N)CCCCN)C(C)C)[C@@H](C)CC)C(=O)NCC(=O)N[C@@H](C)C(=O)N[C@H](C(=O)N[C@@H](CC(C)C)C(=O)N[C@@H](CCCCN)C(=O)N[C@H](C(=O)N[C@@H](CC(C)C)C(=O)N[C@H](C(=O)N[C@H](C(=O)NCC(=O)N[C@@H](CC(C)C)C(N)=O)[C@@H](C)O)[C@@H](C)O)C(C)C)C(C)C [CB(1-13)M(1-13)] | >400 µM | 0.4 | 0.4 | 1 | 4 µM | 0.3 | 1 |  |  |  |
| CC[C@H](C)[C@H](NC(=O)CN)C(=O)NCC(=O)N[C@@H](C)C(=O)N[C@H](C(=O)N[C@@H](CC(C)C)C(=O)N[C@@H](CCCCN)C(=O)N[C@H](C(=O)N[C@@H](CC(C)C)C(=O)N[C@H](C(=O)N[C@H](C(=O)NCC(=O)N[C@@H](CC(C)C)C(=O)N[C@@H](CCCCN)C(=O)N[C@@H](Cc1c[nH]c2ccccc12)C(=O)N[C@@H](CCCCN)C(=O)N[C@@H](CC(C)C)C(=O)N[C@@H](Cc1ccccc1)C(=O)N[C@@H](CCCCN)C(=O)N[C@@H](CCCCN)C(=O)N[C@H](C(=O)N[C@@H](CCC(=O)O)C(=O)N[C@@H](CCCCN)C(=O)N[C@H](C(=O)NCC(=O)N[C@@H](CCC(N)=O)C(N)=O)C(C)C)[C@@H](C)CC)[C@@H](C)O)[C@@H](C)O)C(C)C)C(C)C [M(1-13)CA(1-13)] | 80? µM | 0.1 | 0.3 | 5 | 5* µM | 1 | 1 |  |  |  |
| CC[C@H](C)[C@H](NC(=O)CN)C(=O)NCC(=O)N[C@@H](C)C(=O)N[C@H](C(=O)N[C@@H](CC(C)C)C(=O)N[C@@H](CCCCN)C(=O)N[C@H](C(=O)N[C@@H](CC(C)C)C(=O)N[C@H](C(=O)N[C@H](C(=O)NCC(=O)N[C@@H](CC(C)C)C(=O)N[C@@H](CCCCN)C(=O)N[C@@H](Cc1c[nH]c2ccccc12)C(=O)N[C@@H](CCCCN)C(=O)N[C@@H](CC(C)C)C(=O)N[C@@H](Cc1ccccc1)C(=O)N[C@@H](CCCCN)C(=O)N[C@@H](CCCCN)C(=O)N[C@H](C(=O)N[C@@H](CCC(=O)O)C(=O)N[C@@H](CCCCN)C(=O)N[C@H](C(=O)NCC(=O)N[C@@H](CCC(N)=O)C(=O)N[C@@H](CC(N)=O)C(=O)N[C@H](C(=O)N[C@@H](CCCNC(=N)N)C(=O)N[C@@H](CC(=O)O)C(=O)NCC(=O)N[C@H](C(=O)N[C@H](C(=O)N[C@@H](CCCCN)C(=O)N[C@@H](C)C(N)=O)[C@@H](C)CC)[C@@H](C)CC)[C@@H](C)CC)C(C)C)[C@@H](C)CC)[C@@H](C)O)[C@@H](C)O)C(C)C)C(C)C [M(1-13)CA(1-22)] | 40? µM | 0.2 |  |  | 5* µM | 0.7 | 1 |  |  |  |
| CC[C@H](C)[C@H](NC(=O)CNC(=O)[C@H](CCC(N)=O)NC(=O)[C@H](CCC(N)=O)NC(=O)[C@H](CCCNC(=N)N)NC(=O)[C@H](CCCCN)NC(=O)[C@H](CCCNC(=N)N)NC(=O)[C@H](CCCCN)NC(=O)[C@@H](NC(=O)[C@H](Cc1c[nH]c2ccccc12)NC(=O)[C@H](CO)NC(=O)[C@@H](NC(=O)[C@@H](N)CC(C)C)[C@@H](C)CC)[C@@H](C)CC)C(=O)NCC(=O)N[C@@H](C)C(=O)N[C@H](C(=O)N[C@@H](CC(C)C)C(=O)N[C@@H](CCCCN)C(=O)N[C@H](C(=O)N[C@@H](CC(C)C)C(=O)N[C@H](C(=O)N[C@H](C(=O)NCC(=O)N[C@@H](CC(C)C)C(N)=O)[C@@H](C)O)[C@@H](C)O)C(C)C)C(C)C [M(16-26)M(1-13)] |  |  |  |  |  |  |  | > 240 |  | 40-60 fold |
